Reference: patent publication US20250034127A1, “AUTOPHAGY INDUCING COMPOUNDS AND USES THEREOF, IN PARTICULAR FOR DISEASES OF THE CNS” (Samsara Therapeutics Inc., priority 2021, published 2025)

Test system: U2OS cell line stabling expressing RFP-eGFP-hLC3b
Test: Tandem reporter assay (autophagic flux)
Assay type: cell-based, human
Conditions: RFP-only puncta as percentage of DMSO-treated control, 24 hours
Procedure: Selected compounds of this invention were also assessed for their ability to stimulate autophagy using a U2OS cell line stabling expressing RFP-cGFP-hLC3b (a tandem reporter cell line).
During the process of autophagy, the cargo to be degraded is first enveloped by organelles called autophagosomes. These autophagosomes then fuse with lysosomes, causing them to become acidified and their digestive enzymes to become activated. The term “autophagic flux” is used to represent the dynamic process of autophagy: autophagic flux refers to the whole process of autophagy, including autophagosome formation, maturation, fusion with lysosomes, subsequent breakdown and the release of macromolecules back into the cytosol (Zhang X J, Chen S, Huang K X, Le W D. Why should autophagic flux be assessed? Acta Pharmacol Sin. 2013 May; 34 (5): 595-9. doi: 10.1038/aps.2012.184. Epub 2013 Mar. 11). Compounds that stimulate autophagic flux stimulate the dynamic process of autophagy (the whole process of autophagy).
LC3b is a protein found in the membrane of autophagosomes which has been used to generate genetic reporters of autophagy in cells. In these systems a tandem fusion of LC3b is engineered with two fluorescent proteins of different wavelengths: one which is acid sensitive (for example eGFP, which fluoresces green) and the other which is acid insensitive (for example RFP, which fluoresces red). Cells expressing RFP-cGFP-hLC3b can be examined using fluorescent microscopy: the autophagosomes present will fluoresce in both channels (either yellow in an overlay of both channels or puncta that are present in both the individual red and green channels) but the autolysosomes present will fluoresce in the RFP (red) channel only. Using a fluorescent microscope, the number of autophagosomes and autolysosomes can be counted, allowing for the monitoring of both the induction of autophagy (total puncta count) and the rate of autophagic flux (ratio of red-only to red-and-green puncta). The influence of small molecules on autophagy induction and flux can be assessed using this system by comparison to a non-treated control.
Representative Procedure: Human osteosarcoma U2OS cells stably expressing RFP-eGFP-hLC3b were seeded (10,000 cells/well) into a 96-well glass-bottom plate (Cell Carrier Ultra, Perkin Elmer) in DMEM Glutamax media (Gibco) supplemented with 10% Fetal Bovine Serum (FBS) and antibiotics (100 u/ml penicillin, 100 μg/ml streptomycin, Invitrogen), then incubated overnight in a humified atmosphere at 37° C. and 5% CO2. The cells were then treated with the compounds of interest, dissolved in DMSO, in a duplicated 5- or 10-point dose-response. 8 wells were treated with an equivalent volume of DMSO, 4 with […] torin-1 as a positive control (MCE) and 4 wells with 0.4 μM torin-1 plus 0.2 μM bafilomycin (MCE) as a control for flux inhibition. The cells were returned to the incubator and the treatment continued for 24 hours. After treatment, the media was aspirated off and the cells fixed with a solution of 4% formaldehyde+1% glutaraldehyde (Sigma) in dPBS (plus magnesium and calcium, Gibco). Fixation was allowed to proceed for 15 minutes at room temperature then the fixative solution discarded and replaced with PBS (Gibco) plus Hoescht 33342 (1 μg/ml, Sigma). After 30 minutes the plates were imaged on an Opera Phenix confocal microscope (Perkin-Elmer) using a 40× water objective, collecting using DAPI, mCherry and GFP channels. Cells were detected based upon the staining of their nuclei with DAPI using the Harmony image analysis software (Perkin-Elmer) and the number of autophagosomes (GFP and RFP puncta) and autolysosomes (RFP only puncta) per cell were counted using the spot picking function within the software.

Structure (SMILES) | Autolysosome % DMSO activity (compound concentration of 1 μM) | Autolysosome % DMSO activity (compound concentration of 10 μM)
C[C@H]1CN(C(=O)c2csc(-c3cnn(-c4ccc(C5CC5)cc4)c3)n2)CCN1 [Compound 266, (3S)-1-{2-[1-(4-cyclopropylphenyl)-1H-pyrazol-4-yl]-1,3-thiazole-4-carbonyl}-3-methylpiperazine] | 176% | 273%
C[C@H]1CN(C(=O)c2csc(-c3cnn(-c4ccc(C(C)(C)C)cc4)c3)n2)CCN1 [Compound 270, (3S)-1-{2-[1-(4-tert-butylphenyl)-1H-pyrazol-4-yl]-1,3-thiazole-4-carbonyl}-3-methylpiperazine] | 251% | –
CC(C)c1ccc(-n2cc(-c3nc(C(=O)N4CCN[C@@H](C)C4)cs3)cn2)cc1 [Compound 273, (3S)-3-methyl-1-(2-{1-[4-(propan-2-yl)phenyl]-1H-pyrazol-4-yl}-1,3-thiazole-4-carbonyl)piperazine] | 224% | –
C[C@H]1CN(C(=O)c2nc(-c3cnn(-c4ccccc4)c3)c[nH]2)CCN1 [Compound 279, (3S)-3-methyl-1-[5-(1-phenyl-1H-pyrazol-4-yl)-1H-imidazole-2-carbonyl]piperazine] | 123% | 158%
CC1CC(N(C(=O)c2csc(-c3cnn(-c4ccccc4)c3)n2)C(C)C)CCN1 (stereo not drawn) [Compound 297, N-(2-methylpiperidin-4-yl)-2-(1-phenyl-1H-pyrazol-4-yl)-N-(propan-2-yl)-1,3-thiazole-4-carboxamide] | 109% | 119%
CC1CC(N(C(=O)c2csc(-c3cnn(-c4ccccc4)c3)n2)C(C)C)CC(C)N1 (stereo not drawn) [Compound 298, N-(2,6-dimethylpiperidin-4-yl)-2-(1-phenyl-1H-pyrazol-4-yl)-N-(propan-2-yl)-1,3-thiazole-4-carboxamide] | 187% | 151%
CC(C)N(C(=O)c1csc(-c2cnn(-c3ccccc3)c2)n1)[C@@H]1CN[C@H](C)C1 [Compound 299, N-[(3S,5R)-5-methylpyrrolidin-3-yl]-2-(1-phenyl-1H-pyrazol-4-yl)-N-(propan-2-yl)-1,3-thiazole-4-carboxamide] | 162% | 152%
